In publication PMC5059851, “Inhibition of Hedgehog-dependent tumors and cancer stem cells by a newly identified naturally occurring chemotype” (Cell Death & Disease, 2016):

Experiments:
[1] = tested on: Gli1 mRNA; experiment: Gli1 mRNA (qRT-PCR) in DAOY cells; assay type: cell-based, human; conditions: after treatment
Protocol: After the indicated times, a trypan blue count was performed to determine the growth rate. […] Results were normalized to endogenous control (β-actin and HPRT).
Total RNA was isolated with Trizol (Invitrogen/Life Technologies, Carlsbad, CA, USA) and reverse transcribed with SensiFAST cDNA Synthesis Kit (Bioline Reagents Limited, London, UK). Quantitative real-time PCR (Q-PCR) analysis of Gli1, Gli2, Ptch1, Bmp2, Pfkfb3, CycD1, CycD2, Pcna, Oct4, Nanog, β-2 microglobulin, β-actin and HPRT mRNA expression was performed on each cDNA sample using the VIIA7 Real Time PCR System employing Assay-on-Demand Reagents (Life Technologies).

[2] = tested on: Hh target genes (Gli1 and others) in Ptch1^−/− MEFs; experiment: qRT-PCR of endogenous Hh target genes in Ptch1−/− MEFs; assay type: cell-based, mouse; conditions: 5 μM, 48 h
Text: For this reason, we focused further studies only on 12. To investigate the inhibitory properties of 12 on Hh pathway, we analyzed endogenous Hh target gene activation in genetically defined Ptch1^−/− mouse embryonic fibroblasts (Ptch1^−/− MEFs) (Figure 2a). In these cells, constitutive activation of the Hh pathway is the consequence of the loss of repressive receptor Ptch1 gene, thus determining high expression levels of Hh target.
Figure 2 Compound 12 inhibits Hh signaling without affecting AP1/Jun and WNT/β-Catenin pathways. (a) The graphs show the Hh target genes expression levels in Ptch1^−/− MEFs treated for 48 h with 12 or DMSO as control. mRNA levels were determined by quantitative real-time PCR (qRT-PCR) normalized to endogenous control (β2-microglobulin and HPRT). Pfkfb3 gene was used as negative control. *P<0.05 versus CTR. […]
Total RNA was isolated with Trizol (Invitrogen/Life Technologies, Carlsbad, CA, USA) and reverse transcribed with SensiFAST cDNA Synthesis Kit (Bioline Reagents Limited, London, UK). Quantitative real-time PCR (Q-PCR) analysis of Gli1, Gli2, Ptch1, Bmp2, Pfkfb3, CycD1, CycD2, Pcna, Oct4, Nanog, β-2 microglobulin, β-actin and HPRT mRNA expression was performed on each cDNA sample using the VIIA7 Real Time PCR System employing Assay-on-Demand Reagents (Life Technologies). […]

[3] = tested on: Hh pathway (Gli-responsive firefly luciferase reporter); experiment: Hh-dependent Gli-luciferase reporter assay in SAG-treated NIH3T3 Shh-Light II cells; assay type: cell-based; conditions: SAG (200 nM)-treated NIH3T3 Shh-Light II cells, 48 h, normalized to Renilla; N.A. = Not Active
Protocol: The inhibitory properties of the potential Smo antagonists 1–17 were investigated in a luciferase reporter assay that is widely used for characterizing Hh inhibitors. NIH3T3 Shh-Light II cells, stably incorporating a Gli-responsive firefly luciferase reporter (Gli-RE),[25] were treated with the synthetic Smo agonist SAG[24] alone or in combination with the selected small molecules to evaluate their dose–response ability to suppress Hh pathway. […] We excluded the possibility that inhibition activity in this assay was mediated by cytotoxicity because no decrease was shown in the luciferase assay control Renilla as observed instead for 13–17.
The luciferase assay was performed in Shh-Light II cells, stably incorporating a Gli-responsive luciferase reporter and the pRL-TK Renilla (normalization control), treated for 48 h with SAG (200 nM) and the studied compounds. Luciferase and Renilla activity were assayed with a dual-luciferase assay system according to the manufacturer's instruction (Biotium Inc., Hayward, CA, USA). Results are expressed as luciferase/Renilla ratios and represent the mean±S.D. of three experiments, each performed in triplicate.

[4] = tested on: primary MB cells from Ptch1^+/− mice; experiment: Trypan blue growth count of primary MB cells from Ptch1+/− mice; assay type: cell-based, mouse; conditions: ex vivo cultures from Ptch1^+/− mice MBs
Protocol: Cell proliferation was evaluated by BrdU detection (Roche, Welwyn Garden City, UK). Briefly, after the BrdU pulse (24 h for GCPs) cells were fixed with 4% paraformaldehyde and permeabilized with 0.2% Triton X-100, and BrdU detection was performed according to the manufacturer's instructions. Nuclei were counterstained with Hoechst reagent. At least 500 nuclei were counted in triplicate, and the number of BrdU-positive nuclei was recorded. To determine the growth rate of viable cells, a trypan blue count was performed after a treatment period of 24–48–72 h with studied compound.

**Q.** How did the “Gli1 mRNA levels in DAOY cells” value [1] turn out when `COc1ccc(C=CC(=O)c2cc(OC)c(OC)cc2OC)cc1OC` [Compound 12, 3-(3,4-dimethoxy-phenyl)-1-(2,4,5-trimethoxy-phenyl)-2-propen-1-one] was run?
**A.** significant decrease of Gli1 mRNA levels

**Q.** What about the “mRNA levels of endogenous Hh target genes, including Gli1” value [2] of the same compound?
**A.** significantly reduced

**Q.** And the IC50 [3]?
**A.** 4.44 µM

**Q.** What about the “proliferation of primary MB cells” value [4] of the same compound?
**A.** significant inhibition of the proliferation
